Data on 11 compounds can be found in ChEMBL document CHEMBL5291721, “A preclinical secondary pharmacology resource illuminates target-adverse drug reaction associations of marketed drugs” (Nat Commun, 2023).

Assay [1] concerns the target T1, 5-hydroxytryptamine receptor 3A (Homo sapiens, UniProt P46098).
T1 sequence (P46098 whole entry): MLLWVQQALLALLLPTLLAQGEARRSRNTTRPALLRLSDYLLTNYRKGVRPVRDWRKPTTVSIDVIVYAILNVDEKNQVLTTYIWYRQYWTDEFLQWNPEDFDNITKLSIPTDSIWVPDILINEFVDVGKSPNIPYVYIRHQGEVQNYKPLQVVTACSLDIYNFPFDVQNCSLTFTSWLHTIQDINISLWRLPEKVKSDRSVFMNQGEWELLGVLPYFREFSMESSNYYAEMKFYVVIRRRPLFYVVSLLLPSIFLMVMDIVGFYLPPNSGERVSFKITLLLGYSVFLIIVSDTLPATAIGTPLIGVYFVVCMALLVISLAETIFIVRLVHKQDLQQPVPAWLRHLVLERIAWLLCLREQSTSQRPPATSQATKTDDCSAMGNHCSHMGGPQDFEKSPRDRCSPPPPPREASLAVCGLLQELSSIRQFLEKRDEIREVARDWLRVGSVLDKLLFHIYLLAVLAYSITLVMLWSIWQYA
It is filed as functional.

Assay [2] addresses T2, Alpha-1A adrenergic receptor (Homo sapiens, UniProt P35348).
T2 sequence (P35348 whole entry): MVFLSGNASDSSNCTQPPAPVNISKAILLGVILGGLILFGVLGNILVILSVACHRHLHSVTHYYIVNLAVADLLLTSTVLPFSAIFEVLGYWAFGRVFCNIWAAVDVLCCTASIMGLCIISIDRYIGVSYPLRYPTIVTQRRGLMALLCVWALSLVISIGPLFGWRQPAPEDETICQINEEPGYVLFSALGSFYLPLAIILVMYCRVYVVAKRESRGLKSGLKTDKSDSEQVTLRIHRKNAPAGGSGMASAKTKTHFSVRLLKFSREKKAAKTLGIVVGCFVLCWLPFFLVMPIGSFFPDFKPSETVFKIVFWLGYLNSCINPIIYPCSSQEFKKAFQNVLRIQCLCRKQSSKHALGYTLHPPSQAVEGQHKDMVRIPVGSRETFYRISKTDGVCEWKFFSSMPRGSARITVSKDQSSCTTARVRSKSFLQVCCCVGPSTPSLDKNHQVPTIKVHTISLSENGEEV
It is filed as functional, cell-based.

The target in assay [3] is T2, Alpha-1A adrenergic receptor. It is filed as functional, cell-based. This is another data set of the same source.
For assay [4], the target named is 5-hydroxytryptamine receptor 2A (Homo sapiens, UniProt P28223). The format is functional, cell-based.
In assay [5] the target is T3, Prostaglandin G/H synthase 1 (Rattus norvegicus, UniProt Q63921).
T3 sequence (Q63921 whole entry): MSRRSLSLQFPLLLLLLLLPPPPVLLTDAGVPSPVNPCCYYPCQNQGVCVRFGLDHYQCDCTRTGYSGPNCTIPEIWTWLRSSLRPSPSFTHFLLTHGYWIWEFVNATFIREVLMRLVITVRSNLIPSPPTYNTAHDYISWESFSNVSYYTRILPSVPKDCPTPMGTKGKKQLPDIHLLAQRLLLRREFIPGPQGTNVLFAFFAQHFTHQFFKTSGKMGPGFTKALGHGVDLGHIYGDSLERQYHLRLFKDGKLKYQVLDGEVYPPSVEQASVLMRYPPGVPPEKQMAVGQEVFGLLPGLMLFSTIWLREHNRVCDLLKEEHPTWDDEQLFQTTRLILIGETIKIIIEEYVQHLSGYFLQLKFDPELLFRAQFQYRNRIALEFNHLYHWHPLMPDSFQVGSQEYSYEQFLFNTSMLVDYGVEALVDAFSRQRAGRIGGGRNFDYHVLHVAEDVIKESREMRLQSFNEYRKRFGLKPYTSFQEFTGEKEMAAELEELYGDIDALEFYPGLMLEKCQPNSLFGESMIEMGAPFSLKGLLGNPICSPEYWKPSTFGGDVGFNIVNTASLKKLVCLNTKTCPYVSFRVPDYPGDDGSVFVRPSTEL
It is filed as functional.

Another assay deals with Motilin receptor (Homo sapiens, UniProt O43193).
Assay [6] concerns the target Sodium-dependent noradrenaline transporter (Homo sapiens, UniProt P23975).
Assay [7] concerns the target Neuronal acetylcholine receptor subunit alpha-4 (Homo sapiens, UniProt P43681).
For another assay, the target named is D(3) dopamine receptor (Homo sapiens, UniProt P35462).
Assay [8] concerns the target T4, Alpha-2A adrenergic receptor (Homo sapiens, UniProt P08913).
T4 sequence (P08913 whole entry): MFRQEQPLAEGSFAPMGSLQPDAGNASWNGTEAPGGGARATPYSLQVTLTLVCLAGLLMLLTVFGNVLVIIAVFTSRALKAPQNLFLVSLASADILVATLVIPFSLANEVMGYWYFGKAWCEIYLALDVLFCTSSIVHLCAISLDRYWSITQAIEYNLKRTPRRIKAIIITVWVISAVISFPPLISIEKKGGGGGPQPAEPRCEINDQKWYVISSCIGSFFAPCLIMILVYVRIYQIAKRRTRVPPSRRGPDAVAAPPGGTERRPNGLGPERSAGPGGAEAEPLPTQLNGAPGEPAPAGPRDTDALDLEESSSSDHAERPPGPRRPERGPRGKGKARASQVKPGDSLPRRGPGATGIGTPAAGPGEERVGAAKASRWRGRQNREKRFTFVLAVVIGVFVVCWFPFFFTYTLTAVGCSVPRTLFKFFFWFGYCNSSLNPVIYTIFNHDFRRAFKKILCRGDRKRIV
The format is functional, cell-based.

Assay [9] deals with Voltage-gated inwardly rectifying potassium channel KCNH2 (Homo sapiens, UniProt Q12809). It is filed as functional. The conditions noted are these: read-out: AC50.
The next assay has as its target Cannabinoid receptor 1 (Homo sapiens, UniProt P21554). The format is functional, cell-based.
Note: assay procedure not described here.

Neuronal acetylcholine receptor subunit alpha-4, sequence (P43681 whole entry): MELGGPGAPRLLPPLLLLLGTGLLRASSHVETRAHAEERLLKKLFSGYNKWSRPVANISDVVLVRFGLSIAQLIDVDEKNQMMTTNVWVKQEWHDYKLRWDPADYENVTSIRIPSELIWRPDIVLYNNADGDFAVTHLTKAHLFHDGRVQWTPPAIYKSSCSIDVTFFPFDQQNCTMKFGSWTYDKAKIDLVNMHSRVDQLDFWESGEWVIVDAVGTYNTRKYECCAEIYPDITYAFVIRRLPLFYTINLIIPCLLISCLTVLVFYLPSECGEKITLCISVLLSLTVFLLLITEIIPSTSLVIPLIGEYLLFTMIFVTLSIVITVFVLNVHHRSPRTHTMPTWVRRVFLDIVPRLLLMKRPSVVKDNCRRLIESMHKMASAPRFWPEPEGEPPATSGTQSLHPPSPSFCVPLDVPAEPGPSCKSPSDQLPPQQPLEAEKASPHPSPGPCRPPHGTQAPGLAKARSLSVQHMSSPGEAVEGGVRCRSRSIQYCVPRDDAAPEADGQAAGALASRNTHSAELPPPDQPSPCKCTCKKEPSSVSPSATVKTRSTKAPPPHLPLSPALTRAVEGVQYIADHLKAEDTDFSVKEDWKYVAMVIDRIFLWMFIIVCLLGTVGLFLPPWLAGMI
Sodium-dependent noradrenaline transporter, sequence (P23975 whole entry): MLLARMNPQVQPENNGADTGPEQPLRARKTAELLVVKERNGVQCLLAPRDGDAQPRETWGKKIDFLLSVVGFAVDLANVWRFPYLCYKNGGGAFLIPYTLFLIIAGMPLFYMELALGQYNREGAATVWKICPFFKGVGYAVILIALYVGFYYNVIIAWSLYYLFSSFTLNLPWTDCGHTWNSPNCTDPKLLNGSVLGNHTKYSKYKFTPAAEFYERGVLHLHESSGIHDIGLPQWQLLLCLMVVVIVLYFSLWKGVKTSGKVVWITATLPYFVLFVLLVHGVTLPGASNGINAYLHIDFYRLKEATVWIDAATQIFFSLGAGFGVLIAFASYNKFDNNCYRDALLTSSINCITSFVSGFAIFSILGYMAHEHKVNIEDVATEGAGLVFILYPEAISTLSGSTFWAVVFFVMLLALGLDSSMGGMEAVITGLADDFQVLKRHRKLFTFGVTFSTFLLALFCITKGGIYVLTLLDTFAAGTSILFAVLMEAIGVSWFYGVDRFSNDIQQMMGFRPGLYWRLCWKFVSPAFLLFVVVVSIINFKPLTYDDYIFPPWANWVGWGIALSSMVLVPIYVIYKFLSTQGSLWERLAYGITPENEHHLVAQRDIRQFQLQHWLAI
D(3) dopamine receptor, sequence (P35462 whole entry): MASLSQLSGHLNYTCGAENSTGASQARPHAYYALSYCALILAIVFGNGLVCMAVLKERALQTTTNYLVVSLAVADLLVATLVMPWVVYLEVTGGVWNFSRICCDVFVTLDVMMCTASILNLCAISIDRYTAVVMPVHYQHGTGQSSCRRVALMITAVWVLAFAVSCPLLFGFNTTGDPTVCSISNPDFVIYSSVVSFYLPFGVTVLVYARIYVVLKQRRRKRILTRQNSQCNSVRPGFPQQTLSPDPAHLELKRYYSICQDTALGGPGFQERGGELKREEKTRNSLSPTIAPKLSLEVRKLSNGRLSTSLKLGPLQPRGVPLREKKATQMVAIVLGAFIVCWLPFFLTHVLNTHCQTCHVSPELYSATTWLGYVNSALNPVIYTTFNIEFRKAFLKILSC
Motilin receptor, sequence (O43193 whole entry): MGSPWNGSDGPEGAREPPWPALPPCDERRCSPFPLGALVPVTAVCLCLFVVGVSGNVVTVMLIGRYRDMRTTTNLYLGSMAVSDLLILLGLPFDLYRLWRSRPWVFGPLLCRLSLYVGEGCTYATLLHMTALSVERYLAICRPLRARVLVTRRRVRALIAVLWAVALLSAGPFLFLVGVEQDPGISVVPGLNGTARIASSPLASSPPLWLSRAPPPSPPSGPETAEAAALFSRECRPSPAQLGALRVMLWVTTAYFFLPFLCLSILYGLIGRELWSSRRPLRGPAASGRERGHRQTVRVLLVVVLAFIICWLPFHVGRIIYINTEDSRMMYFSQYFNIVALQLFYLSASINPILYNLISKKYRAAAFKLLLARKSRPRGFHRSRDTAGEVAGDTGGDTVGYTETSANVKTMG
Cannabinoid receptor 1, sequence (P21554 whole entry): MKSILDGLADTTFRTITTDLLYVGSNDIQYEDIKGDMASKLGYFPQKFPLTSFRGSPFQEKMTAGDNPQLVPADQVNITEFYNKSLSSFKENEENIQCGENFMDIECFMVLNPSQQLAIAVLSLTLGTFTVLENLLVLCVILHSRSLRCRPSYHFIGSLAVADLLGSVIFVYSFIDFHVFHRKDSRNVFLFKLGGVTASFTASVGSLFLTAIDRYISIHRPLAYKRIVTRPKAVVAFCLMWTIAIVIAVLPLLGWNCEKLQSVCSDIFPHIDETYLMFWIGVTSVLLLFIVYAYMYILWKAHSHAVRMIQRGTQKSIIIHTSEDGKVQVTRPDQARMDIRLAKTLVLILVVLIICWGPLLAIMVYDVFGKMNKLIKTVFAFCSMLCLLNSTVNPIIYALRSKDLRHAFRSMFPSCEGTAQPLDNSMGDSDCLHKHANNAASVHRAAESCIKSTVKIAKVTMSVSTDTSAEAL
5-hydroxytryptamine receptor 2A, sequence (P28223 whole entry): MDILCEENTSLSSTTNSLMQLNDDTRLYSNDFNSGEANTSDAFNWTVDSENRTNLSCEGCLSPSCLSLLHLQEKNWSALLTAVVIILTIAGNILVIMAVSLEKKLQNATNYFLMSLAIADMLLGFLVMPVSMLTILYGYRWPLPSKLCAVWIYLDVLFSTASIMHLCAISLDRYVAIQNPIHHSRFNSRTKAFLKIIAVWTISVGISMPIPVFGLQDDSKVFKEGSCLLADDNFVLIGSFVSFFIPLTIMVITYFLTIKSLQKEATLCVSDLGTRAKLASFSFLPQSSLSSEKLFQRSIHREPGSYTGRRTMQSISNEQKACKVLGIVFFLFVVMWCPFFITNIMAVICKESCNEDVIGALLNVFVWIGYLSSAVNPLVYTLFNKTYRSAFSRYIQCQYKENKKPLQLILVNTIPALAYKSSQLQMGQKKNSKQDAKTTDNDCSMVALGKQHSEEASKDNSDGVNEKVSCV
Voltage-gated inwardly rectifying potassium channel KCNH2, sequence (Q12809 whole entry): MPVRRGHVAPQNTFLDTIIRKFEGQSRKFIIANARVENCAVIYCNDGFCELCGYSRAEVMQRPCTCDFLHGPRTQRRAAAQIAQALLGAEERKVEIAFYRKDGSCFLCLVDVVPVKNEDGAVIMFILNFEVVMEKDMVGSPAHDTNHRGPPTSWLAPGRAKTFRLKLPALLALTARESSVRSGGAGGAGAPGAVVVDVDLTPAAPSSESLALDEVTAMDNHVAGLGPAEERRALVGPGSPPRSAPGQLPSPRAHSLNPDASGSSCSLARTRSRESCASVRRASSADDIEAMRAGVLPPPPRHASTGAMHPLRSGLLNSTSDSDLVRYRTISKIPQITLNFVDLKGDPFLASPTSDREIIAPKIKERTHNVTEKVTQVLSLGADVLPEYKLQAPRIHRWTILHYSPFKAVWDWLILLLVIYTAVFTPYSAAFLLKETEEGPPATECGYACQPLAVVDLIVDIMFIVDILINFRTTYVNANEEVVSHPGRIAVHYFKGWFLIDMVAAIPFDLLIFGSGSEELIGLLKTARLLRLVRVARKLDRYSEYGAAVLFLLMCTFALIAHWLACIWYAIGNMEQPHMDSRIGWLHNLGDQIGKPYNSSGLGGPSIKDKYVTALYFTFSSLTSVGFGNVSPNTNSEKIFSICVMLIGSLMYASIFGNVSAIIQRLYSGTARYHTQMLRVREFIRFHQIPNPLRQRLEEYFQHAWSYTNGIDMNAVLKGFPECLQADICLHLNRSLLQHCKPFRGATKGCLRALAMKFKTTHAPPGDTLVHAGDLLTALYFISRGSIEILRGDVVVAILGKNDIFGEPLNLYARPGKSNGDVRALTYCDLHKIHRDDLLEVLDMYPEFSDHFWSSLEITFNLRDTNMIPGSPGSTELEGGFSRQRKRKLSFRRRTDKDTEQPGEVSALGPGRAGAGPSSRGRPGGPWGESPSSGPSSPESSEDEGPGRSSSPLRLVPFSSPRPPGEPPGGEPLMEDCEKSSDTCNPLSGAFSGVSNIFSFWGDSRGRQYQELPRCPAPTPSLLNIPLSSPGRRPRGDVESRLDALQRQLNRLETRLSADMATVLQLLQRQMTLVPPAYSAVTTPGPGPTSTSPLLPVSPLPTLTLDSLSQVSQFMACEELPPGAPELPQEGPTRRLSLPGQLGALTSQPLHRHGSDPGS

For `CCN(CC)Cc1nccn1-c1ccc([N+](=O)[O-])cc1C(=O)c1ccccc1Cl` [NIZOFENONE], the concentration at half-maximal activity (AC50) (in [1]; in [2]; in assay [3]; in assay [4]; in [5]; on Motilin receptor) was more than 30 µM in each case. In addition, the half-maximal activity concentration (AC50) in assay [6] is more than 30 µM; in assay [7], 8.3 µM; on D(3) dopamine receptor it was more than 30 µM; in assay [8], more than 30 µM; in assay [9], 1.38 µM; at Cannabinoid receptor 1 it was more than 30 µM.
Regarding `O=C(C[S+]([O-])Cc1ccco1)NC/C=C\COc1cc(CN2CCCCC2)ccn1` (configuration not stated) [LAFUTIDINE], the concentration at half-maximal activity (AC50) in assay [1] is more than 30 µM; in assay [2], more than 30 µM; in [3], more than 30 µM; in assay [4] it was more than 30 µM; in [5], more than 10 µM; at Motilin receptor, more than 10 µM. In addition, the AC50 is more than 10 µM in assay [6]; more than 10 µM in [7]; more than 30 µM on D(3) dopamine receptor; more than 10 µM in [8]; more than 30 µM in assay [9]; more than 30 µM at Cannabinoid receptor 1.
For the compound `COc1ccc(C(Cl)=C(c2ccc(OC)cc2)c2ccc(OC)cc2)cc1` [CHLOROTRIANISENE], the AC50 in assay [1] was more than 30 µM; in [2], more than 30 µM; in assay [3], 21 µM; in [4], more than 30 µM; in assay [5] it was 0.259 µM; at Motilin receptor, more than 30 µM. Moreover, the AC50 (in [6]; in [7]; at D(3) dopamine receptor; in [8]; in assay [9]; at Cannabinoid receptor 1) was more than 30 µM in each case.
On to `CCCCCCCC(=O)CC[C@@H]1[C@@H](C/C=C\CCCC(=O)O)[C@@H](O)C[C@H]1O` [UNOPROSTONE], for which the half-maximal activity concentration (AC50) (in assay [1]; in assay [2]; in [3]; in assay [4]; in assay [5]; at Motilin receptor) was more than 30 µM each time. For the same compound, the concentration at half-maximal activity (AC50) (in [6]; in assay [7]; on D(3) dopamine receptor; in assay [8]; in [9]; on Cannabinoid receptor 1) was more than 30 µM throughout.
As to `CC(=O)OCC1=C(C(=O)O)N2C(=O)[C@@H](NC(=O)Cc3cccs3)[C@H]2SC1` [CEPHALOTHIN], the concentration at half-maximal activity (AC50) (in assay [1]; in [2]; in assay [3]; in assay [4]; in assay [5]; on Motilin receptor) was more than 30 µM throughout. Besides, the AC50 (in assay [6]; in assay [7]; on D(3) dopamine receptor; in assay [8]; in assay [9]; on Cannabinoid receptor 1) was more than 30 µM throughout.
Regarding `Cc1ccc(-c2ncc(Cl)cc2-c2ccc(S(C)(=O)=O)cc2)cn1` [ETORICOXIB], the half-maximal activity concentration (AC50) in [1] was more than 10 µM; in [2], more than 30 µM; in assay [3], more than 30 µM; in assay [4], more than 30 µM; in assay [5], more than 30 µM; at Motilin receptor it was more than 10 µM. For the same compound, the half-maximal activity concentration (AC50) is more than 10 µM in assay [6]; more than 10 µM in [7]; more than 10 µM on D(3) dopamine receptor; more than 10 µM in assay [8]; more than 30 µM in assay [9]; more than 30 µM on Cannabinoid receptor 1.
As for `CC(C(=O)O)c1ccc(C(=O)c2ccccc2)s1` (configuration not stated) [TIAPROFENIC ACID], the AC50 was more than 30 µM in [1]; more than 30 µM in [2]; more than 30 µM in assay [3]; more than 30 µM in assay [4]; 0.365 µM in assay [5]; more than 10 µM at Motilin receptor. For the same compound, the AC50 in assay [6] is more than 10 µM; in [7], more than 10 µM; on D(3) dopamine receptor, 8.6 µM; in assay [8], more than 10 µM; in [9] it was 9.26 µM; on Cannabinoid receptor 1, more than 30 µM.
Consider `COC(=O)c1ccc2c(c1)NC(=O)/C2=C(\Nc1ccc(N(C)C(=O)CN2CCN(C)CC2)cc1)c1ccccc1` [NINTEDANIB], for which the concentration at half-maximal activity (AC50) (in assay [1]; in assay [2]; in assay [3]; in assay [4]; in assay [5]; at Motilin receptor) was more than 30 µM throughout. The concentration at half-maximal activity (AC50) in assay [6] was more than 30 µM; in assay [7] it was more than 30 µM; on D(3) dopamine receptor, more than 30 µM; in assay [8], more than 30 µM; in assay [9], 9.1 µM; on Cannabinoid receptor 1, more than 30 µM.
As for `CO/N=C(\C(=O)N[C@@H]1C(=O)N2C(C(=O)O)=C(CSc3nc(C)c(CC(=O)O)s3)CS[C@H]12)c1csc(N)n1` [CEFODIZIME], the AC50 in [1] was more than 30 µM; in assay [2], more than 30 µM; in assay [3], more than 30 µM; in assay [4], more than 30 µM; in assay [5] it was 27 µM; at Motilin receptor it was more than 30 µM. The AC50 (in [6]; in [7]; at D(3) dopamine receptor; in [8]; in [9]; at Cannabinoid receptor 1) was more than 30 µM in each case.
Consider `CN(C)CCOCC(=O)NC12CC3CC(CC(C3)C1)C2` [TROMANTADINE], for which the AC50 (in assay [1]; in assay [2]; in assay [3]; in assay [4]; in [5]; at Motilin receptor) was more than 30 µM each time. The half-maximal activity concentration (AC50) (in assay [6]; in assay [7]; on D(3) dopamine receptor; in [8]; in [9]; on Cannabinoid receptor 1) was more than 30 µM in each case.
As for `C[C@@H](Cc1ccccc1)N(C)Cc1ccccc1` [BENZPHETAMINE], the AC50 in assay [1] is more than 30 µM; in assay [2], more than 30 µM; in [3], 13 µM; in assay [4], more than 10 µM; in assay [5], more than 10 µM; at Motilin receptor, more than 10 µM. In addition, the AC50 in assay [6] was 0.036 µM; in [7], more than 10 µM; at D(3) dopamine receptor, more than 30 µM; in assay [8], more than 10 µM; in [9], 14.5 µM; at Cannabinoid receptor 1 it was more than 30 µM.

As usually defined, the AC50 is the concentration at which the activity in the assay is half-maximal.
